Laboratory results as given in patent US11376228B2 (Genifarm Laboratories Inc, priority 2018, dated 2022).
Like-named read-outs stand apart in the source and are kept apart here.

How the values were obtained:
Format in all cases: cell-based
[1] = tested on: human lung cancer cells A549; experiment: MTT assay, proliferation of human lung cancer cells A549; conditions: for inhibitory effects on human lung cancer cells A549 (in words): A549, summary of Table 3; for effect compared with control gossypol I-A9, A549: A549, versus gossypol I-A9; for IC50: Homo sapiens, read-out: IC50 on the proliferation of human lung cancer cells A5499
Method: (§1) The original culture medium for human lung cancer cells A549 was removed, and human lung cancer cells A549 were rinsed with 2 mL of phosphate buffer saline (PBS), digested with 0.5 mL of pancreatic enzyme for 3 min. 2 mL of culture medium was added to the cells and the mixture was transferred to a centrifuge tube. The mixture was centrifuged (200 g) for 5 min. The supernatant was removed. 2 mL of culture medium was sprayed five times to the remaining solution. 0.5 mL of cell suspension was transferred to an Eppendorf (EP) tube and the cells were counted. The cells were cultured on a 96-well plate, each well having 2000 cells, 3 wells for each compound. The numbers of the required cells and wells and the amount of culture medium were calculated. The cells were diluted by the culture medium. 100 μL culture medium was added to each well and were evenly dispersed, each well containing 2000 cells. The cells were transferred to the wells using a pipette, and cultured in an incubator.
(§2) (2) Adding Compounds to Culture Medium
(§3) The original culture medium was discarded, and the mother liquor of each compound was diluted to final concentrations of 0, 5, 10, 20, 30, 60 and 80 μM, respectively. Each diluent was uniformized. To each head of a multichannel pipette, 100 μL of the diluent was introduced. Three heads were employed. The diluents were added to 3 marked wells (the cells were undamaged) of a tilted 96-well plate, respectively. Different concentrations of diluents were added to three different marked wells and evenly mixed by alternately sucking and blowing with the multichannel pipette 3 times. The 96-well plate was shaken slightly twice, and cultured in a CO2 incubator.
(§4) The cells were cultured in different compounds for 48 h and were then detected. Specifically, a clean bench was turned on for 15 min, and phosphate buffer saline (PBS) was pre-heated in a warm water bath for 15 min. MTT was taken out of a refrigerator at −20 degrees, protected from light and thawed (MTT stock solution was 5 mg/mL). MTT and a culture medium were mixed evenly in a V-shaped groove to yield a mixture comprising 500 μg/mL MTT and a culture medium (a volume ratio thereof being 1:10). 100 μL of the prepared MTT mixture was added to each well of the 96-well plate using the multichannel pipette, and then incubated at 37° C. for an appropriate time (1 h), thereby reducing the MTT to formazan (purple crystals formed in the cells under a microscope, which were different in medicated cells and unmedicated cells). The upper liquid was removed with a white pipette tip attached to a vacuum pump. For each concentration of the compounds, 3 pipette tips were employed. After the incubation, the MTT mixture was discarded, and then 100 μL of DMSO was added to each well using the multichannel pipette. The 96-well plate was shaken in a shaker for 10 min (until the purple crystals were dissolved in the cells under the microscope).
(§5) The absorbance value of the resulting solution was detected at a wavelength of 550 nm with a microplate reader. The survival rate of cells treated with different concentrations of drugs was calculated in accordance with the requirements to make a scatter plot. The IC50 results of each compound on the proliferation of human lung cancer cells A549 were shown in Table 3, where Gossypol I-A9 is a control sample.

[2] = tested on: human prostate cancer cells PC3; experiment: MTT assay, proliferation of human prostate cancer cells PC3; conditions: for IC50: Homo sapiens, 48 h, read-out: IC50 on the proliferation of human prostate cancer cells PC3; for inhibitory effects on human prostate cancer cells PC3 (in words): PC3, summary of Table 4; for effect compared with control gossypol I-A9, PC3: PC3, versus gossypol I-A9
[3] = tested on: human gastric cancer cells MKN45; experiment: MTT assay, proliferation of human gastric cancer cells MKN45; conditions: for IC50: Homo sapiens, read-out: IC50 on the proliferation of human gastric cancer cells MKN45; for inhibitory effects on human gastric cancer cells MKN45 (in words): MKN45, summary of Table 1
Method: as §1, with “gastric” for “lung”, “MKN45” for “A549”
as §2
as §3, with “15,” for “10, 20,”, “30, 45 and” for “30,”, “60” for “60 and 80”
as §4
The absorbance value of the cells was measured at a wavelength of 550 nm with a microplate reader. The survival rate of the cells treated with different concentrations of compounds was calculated to make a scatter plot. The IC50 results of each compound on the proliferation of human gastric cancer cells MKN45 were shown in Table 1, where Gossypol I-A9 is a control sample.

[4] = tested on: human ovarian cancer cells SKOV3; experiment: MTT assay, proliferation of human ovarian cancer cells SKOV3; conditions: for IC50: Homo sapiens, read-out: IC50 on the proliferation of human ovarian cancer cells SKOV3; for inhibitory effects on human ovarian cancer cells SKOV3 (in words): SKOV3, summary of Table 2; for effect compared with control gossypol I-A9, SKOV3: SKOV3, versus gossypol I-A9
Method: as §1, with “ovarian” for “lung”, “SKOV3” for “A549”
as §2
as §3, with “1, 2, 4, 8” for “5, 10, 20, 30, 60”, “16” for “80”
as §4
as §5, with “ovarian” for “lung”, “SKOV3” for “A549”, “2, wherein” for “3, where”

[5] = SK-OV-3, SKOV3, MTT, 48 h, 0-16 μM

SMILES	IC50 ([2]; PC3, MTT, 0-32 μM) [µM]	inhibitory effects on human prostate cancer cells PC3 (in words) [2]	effect compared with control gossypol I-A9, PC3 [2]	IC50 [4, 5] [µM]	inhibitory effects on human ovarian cancer cells SKOV3 (in words) [4]	also measured
COc1ccc(-c2c(C)c(O)c(O)c(C=O)c2COCc2ccccc2)cc1 [Compound I-29]	4.26	significant inhibitory effects	superior than the gossypol I-A9			inhibitory effects on human lung cancer cells A549 (in words) [1]: inhibitory effects; effect compared with control gossypol I-A9, A549 [1]: slightly inferior to that of the Gossypol I-A9; IC50 ([1]; A549, MTT, 48 h, 0-80 μM): 42.1 µM
Cc1cc(C)cc(-c2c(C)c(O)c(O)c(C=O)c2COCc2ccccc2)c1 [Compound I-45]	6.57	significant inhibitory effects	superior than the gossypol I-A9			inhibitory effects on human lung cancer cells A549 (in words) [1]: inhibitory effects; effect compared with control gossypol I-A9, A549 [1]: slightly inferior to that of the Gossypol I-A9; IC50 ([1]; A549, MTT, 48 h, 0-80 μM): 26 µM
COC(=O)c1ccc(-c2c(C)c(O)c(O)c(C=O)c2Cc2c(OC)cc(OC)cc2OC)cc1 [Compound I-49]	13.1	significant inhibitory effects		5.92	significant inhibitory effects	IC50 ([3]; MKN-45, MKN45, MTT, 48 h, 0-60 μM): 3.12 µM; inhibitory effects on human gastric cancer cells MKN45 (in words) [3]: significant inhibitory effects; effect compared with control gossypol I-A9, MKN45 ([3]; MKN45, versus gossypol I-A9): better than the control gossypol I-A9; effect compared with control gossypol I-A9, SKOV3 [4]: superior to that of the gossypol I-A9
COc1cc(OC)c(Cc2cc(C)c(O)c(O)c2CO)c(OC)c1 [Compound I-97]				≥ 35		inhibitory effects on human gastric cancer cells MKN45 (in words) [3]: significant inhibitory effects
C#CCOCc1c(C=O)c(O)c(O)c(C)c1-c1ccccc1 [I-A2]	5	significant inhibitory effects	superior than the gossypol I-A9	11.5	significant inhibitory effects	
COc1cccc2c(OC)c(Cc3cc(C)c(O)c(O)c3C=O)ccc12 [I-A3]	6.54	significant inhibitory effects	superior than the gossypol I-A9	6.45	significant inhibitory effects	effect compared with control gossypol I-A9, SKOV3 [4]: superior to that of the gossypol I-A9
COc1cc(OC)c(Cc2c(C#Cc3ccccc3)c(C)c(O)c(O)c2C=O)c(OC)c1 [I-A5]	4.19	significant inhibitory effects	superior than the gossypol I-A9	9.79	significant inhibitory effects	
Cc1cc2c(C(C)C)c(O)c(O)c(C=O)c2c(O)c1-c1c(C)cc2c(C(C)C)c(O)c(O)c(C=O)c2c1O [I-A9, gossypol, reference compound]						IC50 ([1]; A549, 48 h): 18.1 µM; IC50 ([3]; MKN-45, 48 h): 15.4 µM; IC50 ([4]; SK-OV-3, 48 h): 9.55 µM; IC50 [2]: 10 µM
